Experimental data as given in patent publication US11535643B2, “Macrolides with modified desosamine sugars and uses thereof” (President and Fellows of Harvard College, priority 2015, dated 2022).
Converted amounts (≈) assume the structure as drawn.

Columns and labels:
Type in all cases: cell-based
[1] = tested on: S. pneumoniae; test: Broth dilution MIC determination (CLSI) against S. pneumoniae strains
Text: (§1) Minimum inhibitory concentrations (MICs) for macrolides described herein have been determined for unique strains of S. aureus, S. pneumoniae, S. pyogenes, E. faecalis, E. coli, A. baumannii, K. pneumoniae, P. aeruginosa, and H. influenzae, including several multidrug-resistant strains, with a special focus on macrolide resistant mechanisms. Azithromycin and solithromycin were included as control compounds. CLSI standard procedures for broth dilution MIC determination were used. Data for exemplary compounds described herein is shown in Tables M1-M7 and in Tables N1-N4.

[2] = tested on: E. faecalis; test: Broth dilution MIC determination (CLSI) against E. faecalis strains
Text: as §1

[3] = tested on: E. coli; test: Broth dilution MIC determination (CLSI) against E. coli strains
Outline: (§2)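 MICs were determined by CLSI standard broth dilution against multiple strains, including multidrug-resistant isolates, with emphasis on macrolide resistance mechanisms. Azithromycin and solithromycin served as control compounds.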

[4] = tested on: P. aeruginosa; test: Broth dilution MIC determination (CLSI) against P. aeruginosa strains
Outline: as §2

[5] = tested on: S. aureus; test: Broth dilution MIC determination (CLSI) against S. aureus strains
Outline: as §2

[6] = tested on: A. baumannii; test: Broth dilution MIC determination (CLSI) against A. baumannii strains
Outline: as §2

[7] = tested on: K. pneumoniae; test: Broth dilution MIC determination (CLSI) against K. pneumoniae strains
Outline: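 Azithromycin and solithromycin served as controls; MICs were obtained by standard CLSI broth dilution on a strain panel including multidrug-resistant and macrolide-resistant isolates.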

[8] = tested on: S. pyogenes; test: Broth dilution MIC determination (CLSI) against S. pyogenes strains
Text: as §1

[9] = S. pneumoniae ATCC49619, strain MP-21 (Table N2)
[10] = S. pneumoniae mefA, strain MP-626 UNT-038 (Table N2)
[11] = S. pneumoniae mefA, strain MP-627 UNT-039 (Table N2)
[12] = E. faecalis ATCC29212, strain MP-24 (Table N2)
[13] = E. faecalis van resistant, strain UNT-039 (Table N2)
[14] = E. coli ATCC25922, strain MP-4 (Table N2)
[15] = E. coli ATCC25922:tolC, strain MP-9 (Table N2)
[16] = E. coli clinical, strain MP541 (Table N2)
[17] = E. coli clinical-cErm, strain MP532 (Table N2)
[18] = P. aeruginosa ATCC27853, strain MP-3 (Table N2)
[19] = P. aeruginosa PAO1, strain MP-7 (Table N2)
[20] = P. aeruginosa PAO1:mex, strain MP-8 (Table N2)
[21] = S. aureus (MRSA) GISA USA600, strain MP-619 UNT-120 (Table N2)
[22] = S. aureus (MRSA) ST-228 cErm, strain MP-513 (Table N2)
[23] = S. aureus (MRSA) USA100, strain MP-618 UNT-096 (Table N2)
[24] = S. aureus (MRSA) USA300, strain MP-549 (Table N2)
[25] = S. aureus (MRSA) ermA phenotype, strain MP-620 UNT-146 (Table N2)
[26] = S. aureus ATCC29213, strain MP-12 (Table N2)
[27] = S. aureus ATCCBAA-977, strain MP-17 (Table N2)
[28] = A. baumannii ATCC19606, strain MP-15 (Table N2)
[29] = A. baumannii clinical, strain MP576 (Table N2)
[30] = A. baumannii clinical, strain MP577 (Table N2)
[31] = K pneumomae ATCC10031, strain MP-14 (Table N2)
[32] = K. pneumoniae clinical, strain MP546 (Table N2)
[33] = K. pneumoniae clinical, strain MP548 (Table N2)
[34] = S. pyogenes ATCC19615, strain MP-19 (Table N2)
[35] = S. pyogenes mac resistant, strain MP-625 UNT-014 (Table N2)

CCC1OC(=O)C(C)C(=O)C(C)C(OC2OC(C)CC(NCC(=O)O)C2O)C(C)(OC)CC(C)CNC(C)C2N(CCCCn3cc(-c4cccc(N)c4)nn3)C(=O)OC12C (stereo not drawn) [FSM-120368]
MIC S. pneumoniae ATCC49619 ([1]; ATCC49619, Strain No. MP-21): 16 µg/mL (≈ 18.6 µM) | MIC S. pneumoniae mefA ([1]; Strain No. MP-626 UNT-038): 16 µg/mL (≈ 18.6 µM) | MIC S. pneumoniae mefA ([1]; Strain No. MP-627 UNT-039): 8 µg/mL (≈ 9.32 µM) | MIC E. faecalis ATCC29212 ([2]; ATCC29212, Strain No. MP-24): >64 µg/mL | MIC E. faecalis van resistant ([2]; van resistant, Strain No. UNT-039): >64 µg/mL | MIC E. coli ATCC25922 ([3]; ATCC25922, Strain No. MP-4): >64 µg/mL | MIC E. coli ATCC25922:tolC ([3]; ATCC25922:tolC, Strain No. MP-9): >64 µg/mL | MIC E. coli clinical ([3]; clinical, Strain No. MP541): >64 µg/mL | MIC E. coli clinical-cErm ([3]; clinical-cErm, Strain No. MP532): >64 µg/mL | MIC P. aeruginosa ATCC27853 ([4]; ATCC27853, Strain No. MP-3): >64 µg/mL | MIC P. aeruginosa PAO1 ([4]; PAO1, Strain No. MP-7): >64 µg/mL | MIC P. aeruginosa PAO1:mex ([4]; PAO1:mex, Strain No. MP-8): >64 µg/mL | MIC S. aureus ATCC29213 ([5]; ATCC29213, Strain No. MP-12): >64 µg/mL | MIC S. aureus ATCCBAA-977 ([5]; ATCCBAA-977, Strain No. MP-17): >64 µg/mL | MIC S. aureus (MRSA) GISA USA600 ([5]; GISA USA600, Strain No. MP-619 UNT-120): >64 µg/mL | MIC S. aureus (MRSA) ST-228 cErm ([5]; ST-228 cErm, Strain No. MP-513): >64 µg/mL | MIC S. aureus (MRSA) USA100 ([5]; USA100, Strain No. MP-618 UNT-096): >64 µg/mL | MIC S. aureus (MRSA) USA300 ([5]; USA300, Strain No. MP-549): >64 µg/mL | MIC S. aureus (MRSA) ermA phenotype ([5]; ermA phenotype, Strain No. MP-620 UNT-146): >64 µg/mL | MIC A. baumannii ATCC19606 ([6]; ATCC19606, Strain No. MP-15): >64 µg/mL | MIC A. baumannii clinical ([6]; Strain No. MP576): >64 µg/mL | MIC A. baumannii clinical ([6]; Strain No. MP577): >64 µg/mL | MIC K. pneumoniae ATCC10031 ([7]; ATCC10031, Strain No. MP-14): >64 µg/mL | MIC K. pneumoniae clinical ([7]; Strain No. MP546): >64 µg/mL | MIC K. pneumoniae clinical ([7]; Strain No. MP548): >64 µg/mL | MIC S. pyogenes ATCC19615 ([8]; ATCC19615, Strain No. MP-19): 8 µg/mL (≈ 9.32 µM) | MIC S. pyogenes mac resistant ([8]; mac resistant, Strain No. MP-625 UNT-014): 32 µg/mL (≈ 37.3 µM)

CCC1OC(=O)C(C)C(=O)C(C)C(OC2OC(C)CC(N(C)Cc3cccnc3)C2O)C(C)(OC)CC(C)CNC(C)C2N(CCCCn3cc(-c4cccc(N)c4)nn3)C(=O)OC12C (stereo not drawn) [FSM-120385]
MIC [1, 9]: 0.06 µg/mL (≈ 0.0663 µM) | MIC [1, 10]: 0.125 µg/mL (≈ 0.138 µM) | MIC [1, 11]: 0.25 µg/mL (≈ 0.276 µM) | MIC [2, 12]: 1 µg/mL (≈ 1.1 µM) | MIC [2, 13]: >64 µg/mL | MIC [3, 14]: 64 µg/mL (≈ 70.7 µM) | MIC [3, 15]: 4 µg/mL (≈ 4.42 µM) | MIC [3, 16]: 64 µg/mL (≈ 70.7 µM) | MIC [3, 17]: >64 µg/mL | MIC [4, 18]: >64 µg/mL | MIC [4, 19]: >64 µg/mL | MIC [4, 20]: 32 µg/mL (≈ 35.4 µM) | MIC [5, 21]: >64 µg/mL | MIC [5, 22]: >64 µg/mL | MIC [5, 23]: >64 µg/mL | MIC [5, 24]: 16 µg/mL (≈ 17.7 µM) | MIC [5, 25]: >64 µg/mL | MIC [5, 26]: 4 µg/mL (≈ 4.42 µM) | MIC [5, 27]: 4 µg/mL (≈ 4.42 µM) | MIC [6, 28]: 16 µg/mL (≈ 17.7 µM) | MIC [6, 29]: >64 µg/mL | MIC [6, 30]: 64 µg/mL (≈ 70.7 µM) | MIC [7, 31]: 8 µg/mL (≈ 8.84 µM) | MIC [7, 32]: >64 µg/mL | MIC [7, 33]: >64 µg/mL | MIC [8, 34]: <0.03 µg/mL | MIC [8, 35]: 1 µg/mL (≈ 1.1 µM)

CCC1OC(=O)C(C)C(=O)C(C)C(OC2OC(C)CC(N(CCO)CCO)C2O)C(C)(OC)CC(C)CNC(C)C2N(CCCCn3cc(-c4cccc(N)c4)nn3)C(=O)OC12C (stereo not drawn) [FSM-120379]
MIC [1, 9]: 2 µg/mL (≈ 2.25 µM) | MIC [1, 10]: 1 µg/mL (≈ 1.13 µM) | MIC [1, 11]: 1 µg/mL (≈ 1.13 µM) | MIC [2, 12]: 32 µg/mL (≈ 36 µM) | MIC [2, 13]: >64 µg/mL | MIC [3, 14]: >64 µg/mL | MIC [3, 15]: 32 µg/mL (≈ 36 µM) | MIC [3, 16]: >64 µg/mL | MIC [3, 17]: >64 µg/mL | MIC [4, 18]: >64 µg/mL | MIC [4, 19]: >64 µg/mL | MIC [4, 20]: >64 µg/mL | MIC [5, 21]: >64 µg/mL | MIC [5, 22]: >64 µg/mL | MIC [5, 23]: >64 µg/mL | MIC [5, 24]: >64 µg/mL | MIC [5, 25]: >64 µg/mL | MIC [5, 26]: >64 µg/mL | MIC [5, 27]: >64 µg/mL | MIC [6, 28]: >64 µg/mL | MIC [6, 29]: >64 µg/mL | MIC [6, 30]: >64 µg/mL | MIC [7, 31]: 32 µg/mL (≈ 36 µM) | MIC [7, 32]: >64 µg/mL | MIC [7, 33]: >64 µg/mL | MIC [8, 34]: 4 µg/mL (≈ 4.5 µM) | MIC [8, 35]: 16 µg/mL (≈ 18 µM)
